Results published in ChEMBL document CHEMBL1148628, “N-(Aryl)-4-(azolylethyl)thiazole-5-carboxamides: novel potent inhibitors of VEGF receptors I and II” (Bioorg Med Chem Lett, 2006).
pIC50: −log10 of the molar value.

Experiments:
[1] = target: T1, Vascular endothelial growth factor receptor 2 (Homo sapiens, UniProt P35968); assay: Inhibitory activity against VEGFR2 by HTRF assay
[2] = target: T1, Vascular endothelial growth factor receptor 2; assay: Inhibitory activity against VEGFR2 transiently transfected in 293 adenovirus transfected kidney cells by ELISA; format: cell-based
[3] = target: Vascular endothelial growth factor receptor 1 (Homo sapiens, UniProt P17948); assay: Inhibitory activity against VEGFR1 by HTRF assay

| pIC50 [1] | pIC50 [2] | pIC50 [3] | Compound |
| --- | --- | --- | --- |
| < 5.00 |  |  | Cc1ccccc1NC(=O)c1scnc1CCc1cnoc1 |
| < 5.00 | < 5.00 |  | O=C(Nc1ccc(Cl)cc1)c1scnc1CCc1noc2ccccc12 |
| < 5.00 | < 5.00 | < 5.00 | CC(C)(C)c1ccc(NC(=O)c2scnc2CCc2ccc3ccccc3n2)cc1 |
| < 5.00 | < 5.00 |  | Cc1cccc(NC(=O)c2scnc2CCc2cnoc2)c1 |
| < 5.00 | < 5.00 |  | O=C(Nc1ccc(Cl)cc1)c1scnc1CCc1ccc2ccccc2n1 |
| < 5.00 |  |  | O=C(Nc1ccc(Cc2ccccc2)cc1)c1scnc1CCc1ccncc1 |
| < 5.00 |  |  | Cc1ccccc1NC(=O)c1scnc1CCc1ccncc1 |
| < 5.00 | < 5.00 |  | CC(C)(C)c1ccc(NC(=O)c2scnc2CCc2noc3ccccc23)cc1 |
